For test [1], the target named is CDK4/cyclin D1 (Homo sapiens, UniProt P11802). Briefly: Kinase assay, radioactive phosphate incorporation, CDK4/cyclin D1. As to conditions: 100 μM ATP, 30° C.; read-out: Kinase inhibition IC50 CDK4/cyclin D1. The format is biochemical. As to the method:
(§1) The compounds from the examples above were investigated for their ability to inhibit the enzymatic activity of various protein kinases. This was achieved by measurement of incorporation of radioactive phosphate from ATP into appropriate polypeptide substrates. Recombinant protein kinases and kinase complexes were produced or obtained commercially. Assays were performed using 96-well plates and appropriate assay buffers (typically 25 mM β-glycerophosphate, 20 mM MOPS, 5 MM EGTA, 1 mM DTT, 1 mM Na3VO3, pH 7.4), into which were added 2-4 μg of active enzyme with appropriate substrates. The reactions were initiated by addition of Mg/ATP mix (15 mM MgCl2+100 μM ATP with 30-50 kBq per well of [γ-^32P]-ATP) and mixtures incubated as required at 30° C. Reactions were stopped on ice, followed by filtration through p81 filterplates or GF/C filterplates (Whatman Polyfiltronics, Kent, UK). After washing 3 times with 75 mM aq orthophosphoric acid, plates were dried, scintillant added and incorporated radioactivity measured in a scintillation counter (TopCount, Packard Instruments, Pangbourne, Berks, UK). Compounds for kinase assay were made up as 10 mM stocks in DMSO and diluted into 10% DMSO in assay buffer.

For test [2], the system named is transformed human cell lines (A549, HT29, Saos-2). Briefly: 72-h MTT cytotoxicity assay, average of cell lines. The format is cell-based. As to conditions: read-out: 72-h MTT IC50 Average, average of A549, HT29, Saos-2. A digest of the protocol: (§2)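 Triplicate cultures, plated by doubling time, are treated 72 h at 37° C with compounds diluted 1/3 stepwise; after PBS washing, MTT (stock 5 mg/mL) is applied 4 h without light, then DMSO dissolves the formazan.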
(Formazan colour is commonly taken as a measure of viable cells.)

The target of test [3] is CDK7/cyclin H (Homo sapiens, UniProt P50613). Briefly: Kinase assay, radioactive phosphate incorporation, CDK7/cyclin H. The format is biochemical. The note with it: 100 μM ATP, 30° C.; read-out: Kinase inhibition IC50 CDK7/cyclin H. A digest of the protocol: (§3)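 Steps: enzyme (2-4 μg) plus substrate in pH 7.4 buffer with DTT and vanadate; start with 100 μM ATP/15 mM MgCl2 containing [γ-32P]-ATP; incubate at 30° C; stop on ice; filter, wash with 75 mM orthophosphoric acid; scintillation count. Compounds diluted from DMSO stocks into 10% DMSO buffer.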

Test [4] deals with CDK9/cyclin T1 (Homo sapiens, UniProt P50750). Briefly: Kinase assay, radioactive phosphate incorporation, CDK9/cyclin T1. Format: biochemical. As to conditions: 100 μM ATP, 30° C.; read-out: Kinase inhibition IC50 CDK9/cyclin T1. A digest of the protocol:
as §3

The target of test [5] is CDK2/cyclin E (Homo sapiens, UniProt P24941). As to the kind of experiment: Kinase assay, radioactive phosphate incorporation, CDK2/cyclin E. Format: biochemical. As to conditions: 100 μM ATP, 30° C.; read-out: Kinase inhibition IC50 CDK2/cyclin E. A digest of the protocol: as §3
The test system of test [6] is HT29. As to the kind of experiment: 72-h MTT cytotoxicity assay, HT29. The format is cell-based. The note with it: Homo sapiens, HT-29, read-out: 72-h MTT IC50 HT29, HT29 cell line. In outline: as §2
The subject of test [7] is Saos-2. Briefly: 72-h MTT cytotoxicity assay, Saos-2. As to conditions: Homo sapiens, read-out: 72-h MTT IC50 Saos-2, Saos-2 cell line. Format: cell-based. In outline:
as §2

Test [8] addresses GSK3β (Homo sapiens, UniProt P49841). Briefly: Kinase assay, radioactive phosphate incorporation, GSK3β. Format: biochemical. As to conditions: 100 μM ATP, 30° C.; read-out: Kinase inhibition IC50 GSK3β. In outline:
as §3

Test [9] concerns A549. As to the kind of experiment: 72-h MTT cytotoxicity assay, A549. The format is cell-based. The note with it: Homo sapiens, read-out: 72-h MTT IC50 A549, A549 cell line. In outline: as §2
Test [10] deals with CDK2/cyclin A (Homo sapiens, UniProt P24941). Briefly: Kinase assay, radioactive phosphate incorporation, CDK2/cyclin A. The format is biochemical. As to conditions: 100 μM ATP, 30° C.; read-out: Kinase inhibition IC50 CDK2/cyclin A. As to the method: as §1
The target in test [11] is CDK1/cyclin B (Homo sapiens, UniProt P06493). As to the kind of experiment: Kinase assay, radioactive phosphate incorporation, CDK1/cyclin B. The format is biochemical. As to conditions: 100 μM ATP, 30° C.; read-out: Kinase inhibition IC50 CDK1/cyclin B. As to the method: as §1
Test [12] concerns the target T1, Aurora-A (Homo sapiens, UniProt O14965).
T1 sequence (O14965 1-403): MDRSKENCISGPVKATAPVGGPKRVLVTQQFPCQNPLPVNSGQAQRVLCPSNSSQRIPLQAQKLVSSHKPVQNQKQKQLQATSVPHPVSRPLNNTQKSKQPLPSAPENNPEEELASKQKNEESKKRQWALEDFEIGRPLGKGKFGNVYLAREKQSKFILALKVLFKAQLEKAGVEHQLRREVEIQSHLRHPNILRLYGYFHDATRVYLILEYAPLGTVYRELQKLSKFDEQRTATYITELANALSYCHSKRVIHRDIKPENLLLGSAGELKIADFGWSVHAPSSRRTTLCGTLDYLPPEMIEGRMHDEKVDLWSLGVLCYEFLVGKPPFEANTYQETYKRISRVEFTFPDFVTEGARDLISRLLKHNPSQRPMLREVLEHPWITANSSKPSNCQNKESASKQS
As to the kind of experiment: Kinase assay, radioactive phosphate incorporation, Aurora-A. The format is biochemical. The note with it: 100 μM ATP, 30° C.; read-out: Kinase inhibition IC50 Aurora-A. How it is done: as §1

Bounds are passed on as bounds.

Our source for the IC50 values is patent US20070021419A1, “2-Aminophenyl-4-phenylpyrimidines as kinase inhibitors” (Cyclacel Limited, priority 2003, published 2007).

Chain of CDK7/cyclin H (P50613 whole entry, species assumed): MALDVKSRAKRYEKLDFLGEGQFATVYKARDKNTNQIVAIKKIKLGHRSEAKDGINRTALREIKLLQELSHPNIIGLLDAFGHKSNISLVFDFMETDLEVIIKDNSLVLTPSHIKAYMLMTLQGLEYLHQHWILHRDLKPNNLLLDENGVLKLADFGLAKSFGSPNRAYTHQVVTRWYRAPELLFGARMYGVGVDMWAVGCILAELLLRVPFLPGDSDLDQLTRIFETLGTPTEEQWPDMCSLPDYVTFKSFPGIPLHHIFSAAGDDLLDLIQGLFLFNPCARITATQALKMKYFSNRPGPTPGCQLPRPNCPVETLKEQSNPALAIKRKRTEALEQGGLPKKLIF
Chain of CDK7/cyclin H (P51946 whole entry partner, species assumed): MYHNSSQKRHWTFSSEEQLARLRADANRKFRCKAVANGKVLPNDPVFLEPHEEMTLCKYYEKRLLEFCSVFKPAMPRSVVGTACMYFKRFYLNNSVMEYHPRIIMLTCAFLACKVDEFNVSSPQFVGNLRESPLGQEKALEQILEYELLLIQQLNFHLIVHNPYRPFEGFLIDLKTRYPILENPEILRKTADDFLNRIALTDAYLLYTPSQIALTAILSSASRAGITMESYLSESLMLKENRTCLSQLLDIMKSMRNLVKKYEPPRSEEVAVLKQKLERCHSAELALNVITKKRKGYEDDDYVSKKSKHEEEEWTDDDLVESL
Chain of CDK9/cyclin T1 (P50750 whole entry, species assumed): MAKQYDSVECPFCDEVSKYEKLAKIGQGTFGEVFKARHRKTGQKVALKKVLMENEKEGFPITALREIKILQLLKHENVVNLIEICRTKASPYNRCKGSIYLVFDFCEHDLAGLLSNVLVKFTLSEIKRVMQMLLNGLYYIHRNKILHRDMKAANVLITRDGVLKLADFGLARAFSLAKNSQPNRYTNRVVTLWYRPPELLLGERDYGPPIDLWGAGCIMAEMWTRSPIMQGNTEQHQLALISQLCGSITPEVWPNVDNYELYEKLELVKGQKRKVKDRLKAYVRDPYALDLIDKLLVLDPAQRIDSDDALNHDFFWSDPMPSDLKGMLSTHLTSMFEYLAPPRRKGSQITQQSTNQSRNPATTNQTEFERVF
Chain of CDK9/cyclin T1 (O60563 whole entry partner, species assumed): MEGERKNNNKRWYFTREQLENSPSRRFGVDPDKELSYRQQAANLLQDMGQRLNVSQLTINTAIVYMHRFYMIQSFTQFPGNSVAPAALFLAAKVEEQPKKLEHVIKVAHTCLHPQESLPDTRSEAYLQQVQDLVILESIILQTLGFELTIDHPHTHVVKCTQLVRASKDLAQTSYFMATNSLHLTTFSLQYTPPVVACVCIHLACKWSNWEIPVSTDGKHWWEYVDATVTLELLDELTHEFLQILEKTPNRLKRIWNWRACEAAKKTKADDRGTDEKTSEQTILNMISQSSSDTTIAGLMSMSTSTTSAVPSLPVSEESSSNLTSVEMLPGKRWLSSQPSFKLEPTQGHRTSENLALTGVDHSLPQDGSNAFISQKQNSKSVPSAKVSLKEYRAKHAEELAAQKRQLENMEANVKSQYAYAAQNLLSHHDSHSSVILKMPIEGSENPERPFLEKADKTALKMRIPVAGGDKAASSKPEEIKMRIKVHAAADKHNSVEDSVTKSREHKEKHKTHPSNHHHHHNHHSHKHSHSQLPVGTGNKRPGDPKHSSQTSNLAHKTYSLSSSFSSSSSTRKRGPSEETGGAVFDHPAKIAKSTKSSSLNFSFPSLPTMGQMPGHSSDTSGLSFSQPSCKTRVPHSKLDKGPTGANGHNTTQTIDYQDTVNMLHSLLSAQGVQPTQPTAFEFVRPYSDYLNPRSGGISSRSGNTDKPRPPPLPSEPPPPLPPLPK
Chain of GSK3β (P49841 whole entry, species assumed): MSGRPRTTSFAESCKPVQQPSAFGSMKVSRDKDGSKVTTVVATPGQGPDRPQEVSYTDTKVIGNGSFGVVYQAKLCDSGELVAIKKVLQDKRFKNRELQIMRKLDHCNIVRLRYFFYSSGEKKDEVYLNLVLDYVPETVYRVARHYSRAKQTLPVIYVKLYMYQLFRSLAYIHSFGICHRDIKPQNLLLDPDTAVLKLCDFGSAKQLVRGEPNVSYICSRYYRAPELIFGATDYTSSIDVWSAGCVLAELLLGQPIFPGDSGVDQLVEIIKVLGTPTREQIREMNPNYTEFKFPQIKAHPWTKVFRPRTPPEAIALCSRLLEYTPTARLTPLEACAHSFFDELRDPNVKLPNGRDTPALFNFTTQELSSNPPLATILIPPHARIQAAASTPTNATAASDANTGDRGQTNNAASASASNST
Chain of CDK1/cyclin B (P06493 whole entry, species assumed): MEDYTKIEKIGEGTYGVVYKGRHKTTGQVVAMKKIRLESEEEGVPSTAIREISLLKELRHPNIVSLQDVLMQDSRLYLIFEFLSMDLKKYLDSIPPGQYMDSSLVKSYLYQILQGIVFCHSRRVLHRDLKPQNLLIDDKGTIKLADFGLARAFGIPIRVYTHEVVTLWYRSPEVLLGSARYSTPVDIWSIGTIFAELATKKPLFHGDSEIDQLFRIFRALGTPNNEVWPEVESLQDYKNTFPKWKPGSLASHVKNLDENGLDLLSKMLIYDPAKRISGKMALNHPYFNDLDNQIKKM
Chain of CDK1/cyclin B (P14635 whole entry partner, species assumed): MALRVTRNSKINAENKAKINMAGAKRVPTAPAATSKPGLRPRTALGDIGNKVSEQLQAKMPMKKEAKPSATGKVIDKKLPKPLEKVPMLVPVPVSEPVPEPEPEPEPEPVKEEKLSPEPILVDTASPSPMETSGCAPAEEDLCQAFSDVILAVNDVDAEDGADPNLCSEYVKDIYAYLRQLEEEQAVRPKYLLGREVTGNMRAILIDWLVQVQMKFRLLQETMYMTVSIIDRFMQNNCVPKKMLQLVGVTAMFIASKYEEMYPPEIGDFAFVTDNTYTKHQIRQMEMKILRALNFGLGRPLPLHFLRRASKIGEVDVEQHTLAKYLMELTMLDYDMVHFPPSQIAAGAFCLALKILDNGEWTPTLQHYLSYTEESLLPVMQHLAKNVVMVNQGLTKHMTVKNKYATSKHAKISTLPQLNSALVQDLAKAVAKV
Chain of CDK4/cyclin D1 (P11802 whole entry, species assumed): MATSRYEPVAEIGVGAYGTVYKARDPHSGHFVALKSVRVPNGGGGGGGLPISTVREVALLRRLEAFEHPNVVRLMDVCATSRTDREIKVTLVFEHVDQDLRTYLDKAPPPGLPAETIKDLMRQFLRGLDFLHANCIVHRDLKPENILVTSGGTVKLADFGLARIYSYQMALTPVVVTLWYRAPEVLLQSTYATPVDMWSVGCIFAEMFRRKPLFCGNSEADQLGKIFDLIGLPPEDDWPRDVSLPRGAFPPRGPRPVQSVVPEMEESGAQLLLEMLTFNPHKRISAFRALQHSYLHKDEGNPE
Chain of CDK4/cyclin D1 (P24385 whole entry partner, species assumed): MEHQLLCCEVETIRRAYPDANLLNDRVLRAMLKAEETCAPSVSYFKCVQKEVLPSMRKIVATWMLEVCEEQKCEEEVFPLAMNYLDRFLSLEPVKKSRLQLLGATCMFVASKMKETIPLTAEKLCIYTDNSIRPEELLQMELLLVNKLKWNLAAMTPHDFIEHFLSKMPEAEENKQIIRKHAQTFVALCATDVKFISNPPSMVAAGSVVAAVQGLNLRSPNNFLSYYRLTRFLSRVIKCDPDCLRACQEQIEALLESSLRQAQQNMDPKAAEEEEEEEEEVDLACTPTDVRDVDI

As to `Oc1cccc(Nc2nccc(-c3cccc(CNCc4ccccc4)c3)n2)c1` [Compound 28, 3-{4-[3-(Benzylamino-methyl)-phenyl]-pyrimidin-2-ylamino}-phenol], the IC50 in [1] amounted to 2600 nM; in test [2] it was 10400 ± 4900 nM; in test [3], 2600 nM; in test [4], 35 nM; in test [5] it was 860 nM; in test [6], 16000 nM. In addition, the IC50 is 7100 nM in test [7]; 120 nM in test [8]; 8000 nM in test [9]; 1000 nM in test [10]; 2100 nM in test [11].
With `O=[N+]([O-])c1cccc(Nc2nccc(-c3cccc(Cn4ccnc4)c3)n2)c1` [Compound 29, [4-(3-Imidazol-1-ylmethyl-phenyl)-pyrimidin-2-yl]-(3-nitro-phenyl)-amine], the IC50 in [1] came to 62000 nM; in test [2], 3300 ± 1400 nM; in [3] it was 71 nM; in test [4], 44 nM; in [5], 140 nM; in test [6], 1800 nM. In addition, the IC50 was determined as 4500 nM in test [7]; 50 nM in test [8]; 3600 nM in test [9]; 5100 nM in test [10]; 2200 nM in [11].
In the case of `Oc1cccc(Nc2nccc(-c3cccc(Cn4cncn4)c3)n2)c1` [Compound 34, 3-[4-(3-[1,2,4]triazol-1-ylmethyl-phenyl)-pyrimidin-2-ylamino]-phenol], the IC50 was found to be 1800 nM in test [1]; 5400 ± 2500 nM in [2]; 1200 nM in [3]; 130 nM in test [4]; 240 nM in test [5]; 8300 nM in test [6]. In addition, the IC50 in test [7] was 3700 nM; in test [8], 41 nM; in test [9] it was 4100 nM; in [10], 2400 nM; in test [11], 7000 nM.
Take `O=[N+]([O-])c1cccc(Nc2nccc(-c3cccc(CN4CCOCC4)c3)n2)c1` [Compound 39, [4-(3-Morpholin-4-ylmethyl-phenyl)-pyrimidin-2-yl]-(3-nitro-phenyl)-amine]: the IC50 turned out to be 2410 nM in test [1]; 5600 ± 3200 nM in test [2]; 38 nM in test [3]; 110 nM in [4]; 120 nM in test [5]; 2000 nM in test [6]. Moreover, the IC50 in test [7] worked out at 8000 nM; in test [8] it was 150 nM; in [9], 6800 nM; in [10], 2400 nM; in test [11], 350 nM.
`CCN(Cc1cccc(-c2ccnc(Nc3ccc(OC)nc3)n2)c1)C(C)C` [Compound 53, (4-{3-[(Ethyl-isopropyl-amino)-methyl]-phenyl}-pyrimidin-2-yl)-(6-methoxy-pyridin-3-yl)-amine]: the IC50 worked out at 1100 nM in test [1]; 2100 ± 1200 nM in test [2]; 2500 nM in [3]; 28 nM in [4]; 350 nM in test [5]; 850 nM in [6]. Moreover, the IC50 stood at 3200 nM in [7]; 51 nM in test [8]; 2200 nM in [9]; 3400 nM in [10]; 3900 nM in [11].
Take `CN1CCN(Cc2cccc(-c3ccnc(Nc4cccc([N+](=O)[O-])c4)n3)c2)CC1` [Compound 54, {4-[3-(4-Methyl-piperazin-1-ylmethyl)-phenyl]-pyrimidin-2-yl}-(3-nitro-phenyl)-amine]: the IC50 turned out to be 4500 nM in [1]; 1100 ± 300 nM in test [2]; 130 nM in test [3]; 22 nM in [4]; 300 nM in test [5]; 770 nM in test [6]. In addition, the IC50 in test [7] is 1300 nM; in test [8], 320 nM; in test [9], 1100 nM; in test [10] it was 820 nM; in test [11], 2000 nM.
As to `O=[N+]([O-])c1cccc(Nc2nccc(-c3cccc(CN4CCCCC4CO)c3)n2)c1` (stereo not drawn) [Compound 79, (1-{3-[2-(3-Nitro-phenylamino)-pyrimidin-4-yl]-benzyl}-piperidin-2-yl)-methanol], the IC50 in test [1] was 540 nM; in test [2], 400 ± 200 nM; in [3] it was 50 nM; in [4] it was 10 nM; in [5], under 1 nM; in test [6], 200 nM. Besides, the IC50 in test [7] stood at 620 nM; in [8], 20 nM; in test [9], 330 nM; in [10] it was 150 nM; in [11], 150 nM.
For `Oc1cccc(Nc2nccc(-c3cccc(C(F)(F)F)c3)n2)c1` [Compound 95, 3-[4-(3-trifluoromethyl-phenyl)-pyrimidin-2-ylamino]-phenol], the results for the IC50 in [12] and in test [4] were 990 nM and 90 nM, respectively.
The like results for `Oc1ccc(Nc2nccc(-c3cccc(C(F)(F)F)c3)n2)cc1` [Compound 96, 4-[4-(3-trifluoromethyl-phenyl)-pyrimidin-2-ylamino]-phenol] were, in that order, 20 nM and 80 nM.
For `O=[N+]([O-])c1cccc(Nc2nccc(-c3cccc(CN4CCCC(CCO)C4)c3)n2)c1` (stereo not drawn) [Compound 100, 2-(1-{3-[2-(3-Nitro-phenylamino)-pyrimidin-4-yl]-benzyl}-piperidin-3-yl)-ethanol], the IC50 in test [1] worked out at 3400 nM; in [2], 800 ± 400 nM; in test [3], 70 nM; in test [4] it was 2 nM; in test [5], 60 nM; in test [6], 640 nM. The IC50 in test [7] came out at 1300 nM; in test [8], 20 nM; in [9], 560 nM; in [10], 580 nM; in test [11] it was 1200 nM.
For the compound `COc1ccc(-c2ccnc(Nc3ccc(N4CCOCC4)cc3)n2)cc1` [Compound 111, [4-(4-Methoxy-phenyl)-pyrimidin-2-yl]-(4-morpholin-4-yl-phenyl)-amine], the IC50 in test [12] amounted to 520 nM.
For `Oc1ccc(Nc2nccc(-c3cccc(F)c3)n2)cc1` [Compound 113, 4-[4-(3-Fluoro-phenyl)-pyrimidin-2-ylamino]-phenol], the IC50 was 140 nM in test [12] and 150 nM in test [4].
As to `Oc1cccc(Nc2nccc(-c3cc(F)ccc3F)n2)c1` [Compound 114, 3-[4-(2,5-Difluoro-phenyl)-pyrimidin-2-ylamino]-phenol], the IC50 stood at 160 nM in [12] and 120 nM in test [4].
The matching figures for `OCc1cccc(-c2ccnc(Nc3cccc(F)c3)n2)c1` [Compound 116, {3-[2-(3-Fluoro-phenylamino)-pyrimidin-4-yl]-phenyl}-methanol]: 630 nM and 50 nM.
